Publication PMC6009935 (Journal of Enzyme Inhibition and Medicinal Chemistry, 2017)
Read-outs that look alike come from different tables or passages of the source.

Tests used:
KOR = molecular target: T1, KOR (Cavia porcellus, UniProt P41144); assay: Radioligand competition binding with [3H]HS665; set-up: species or system guinea pig
T1 construct: b: performed in guinea pig whole brain membrane homogenates; from tissue; host or cells: guinea pig (LAL/HA/BR strain) whole brain membrane homogenate
Method: (§1) Tris-HCl, EGTA, NaCl, MgCl2 x 6H2O, GDP, the GTP analogue GTPγS, were purchased from Sigma-Aldrich (Budapest, Hungary). Fatty acid free bovine serum albumin (BSA) was purchased from Serva (Heidelberg, Germany). Naloxone was kindly provided by the company Endo Laboratories DuPont de Nemours (Wilmington, DE, USA). HS665 was provided by Schmidhammer’s group (University of Innsbruck, Austria). […]
(§2) purchased from Tocris Bioscience (Bristol, UK).
(§3) DMSO. All compounds were stored in 1 mM stock solution at -20 °C. The radiolabelled GTP analogue, [35S]GTPγS (specific activity: 1000 Ci/mmol) were purchased from Hartmann Analytic (Braunschweig, Germany). [3H]DAMGO (specific activity: 38.8 Ci/mmol),12 [3H]IleDelt II (specific activity: 19,6 Ci/mmol), [3H]WIN55,212-2 (specific activity: 13,1 Ci/mmol) and [3H]HS665 (specific activity: 36.62 Ci/mmol),3 were radiolabeled by the Laboratory of Chemical Biology group in BRC (Szeged, Hungary).
(§4) For membrane homogenate preparations male and female Wistar rats (250-300 g body weight) and male guinea pigs (~700 g body weight, LAL/HA/BR strain) were used. Rats were housed in the local animal house of BRC (Szeged, Hungary), while guinea pigs were housed in LAB-ÁLL Bt.
(§5) (Budapest, Hungary). All the animals were kept in a temperature controlled room (21-24 °C) under a 12:12 light and dark cycle and were provided with water and food ad libitum. All housing and experiments were conducted in accordance with the European Communities Council Directives (2010/63/EU) and the Hungarian Act for the Protection of Animals in Research (XXVIII.tv. 32.§).
(§6) The total number of animals as well as their suffering was minimized.
(§7) Rat and guinea pig brain membrane homogenate preparation for binding assays Rats and guinea pigs were decapitated and their brains were quickly removed. The brains were prepared for membrane preparation as previously described,4 and partly used for binding experiments and partly were further prepared for the [35S]GTPγS binding experiments. Briefly the brains were homogenized, centrifuged in ice-cold 50 mM Tris-HCl (pH 7.4) buffer and incubated at 37 °C for 30 min in a shaking water-bath. After incubation the centrifugation was repeated as described above and the final pellet was suspended in 50 mM Tris-HCl pH 7.4 buffer containing 0.32 M sucrose, and stored at -80 °C. For the [35S]GTPγS binding experiments the final pellet of rat […]
(§8) brain membrane homogenate was suspended in ice-cold TEM (Tris-HCl, EGTA, MgCl2) and stored at -80 °C for further use.
(§9) Radioligand competition binding experiments
(§10) Aliquots of frozen rat brain membrane homogenates were centrifuged (18 000 rpm, 20 min, 4 °C) to remove sucrose and the pellets were suspended in 50 mM Tris-HCl buffer (pH 7.4). Membranes containing 0.4-0.8 mg/mL of protein were incubated in a final volume of 1 mL in the presence of unlabeled 5, 10 and 9 in increasing concentrations (10-11-10-5 M) in the presence of the appropriate radioligand in ~1 nM concentrations at certain temperature and amount of time depending on the radioligand ([3H]DAMGO and [3H]IleDelt II: 35 °C for 45 min; [3H]HS665: 30 °C, 45 min; [3H]WIN55,212-2: 30 °C for 60 min). Experiments performed with [3H]HS665 where incubated […]
(§11) more kappa receptors than the rat brain), while the rest of the radioligands were incubated together with rat whole brain membrane homogenates. Additionally, in experiments performed with […]
binding was determined in the absence of unlabeled compounds. […]

[1] = molecular target: T2, cannabinoid receptors (CBR) (Rattus norvegicus, UniProt P20272); assay: biochemical; format: binding
T2 construct: a: performed in rat whole brain membrane homogenates; from tissue; host or cells: Wistar rat whole brain membrane homogenate
Method: as §1, §2, §3, §4, §5, §6, §7, §8, §9, §10, §11
(§12) increasing concentrations (10-11-10-5 M) together with 50 mM Tris/HCl, 2.5 mM EGTA, 5 mM MgCl2 and 0.5 mg/mL fatty acid free BSA (pH 7.4). The level of non-specific binding was […]
(§13) binding was determined in the absence of unlabeled compounds. The reaction was terminated by rapid filtration under vacuum (Brandel M24R Cell Harvester), and washed three times with 5 mL ice-cold 50 mM Tris-HCl or 50 mM Tris/HCl, 2.5 mM EGTA, 5 mM MgCl2, 0.5 % BSA (pH 7.4) in case of [3H]WIN55,212-2. The filtration was accomplished through Whatman GF/C ([3H]DAMGO, [3H]IleDelt II and [3H]HS665) or GF/B ([3H]WIN55,212-2) glass fibers. In case of […]

DOR = molecular target: T3, DOR (Rattus norvegicus, UniProt P33533); assay: Radioligand competition binding with [3H]IleDelt II
T3 construct: a: performed in rat whole brain membrane homogenates; from tissue; host or cells: Wistar rat whole brain membrane homogenate
Method: as §1, §2, §3, §4, §5, §6, §7, §8, §9, §10, §11, §12, §13

[2] = rat whole brain membrane homogenates, logarithm of IC50, negative sign printed

Row | SMILES | KOR binding affinity in words (KOR) | logIC50 ± S.E.M., [3H]WIN55,212 (CBR) [1, 2] | DOR binding affinity in words (DOR) | logIC50 ± S.E.M., [3H]IleDelt II (DOR) (DOR; [2]) | Ki (KOR; guinea pig whole brain membrane homogenates, Cheng-Prusoff) [nM] | IC50 (KOR; guinea pig whole brain membrane homogenates, logarithm of IC50, negative sign printed, read-out: logIC50 ± S.E.M., [3H]HS665 (KOR) (converted)) [nM] | Selectivity ratio DOR/KOR (KOR; ratio of Ki values) | CBR / CB1R binding affinity in words [1] | Ki ([1]; rat whole brain membrane homogenates, Cheng-Prusoff, read-out: Ki, [3H]WIN55,212 (CBR)) [nM] | IC50 ([1]; rat whole brain membrane homogenates, logarithm of IC50, negative sign printed, read-out: logIC50 ± S.E.M., [3H]WIN55,212 (CBR) (converted)) [nM] | Ki (DOR; rat whole brain membrane homogenates, Cheng-Prusoff) [nM] | IC50 (DOR; rat whole brain membrane homogenates, logarithm of IC50, negative sign printed, read-out: logIC50 ± S.E.M., [3H]IleDelt II (DOR) (converted)) [nM] | IC50 (DOR) [nM] | Ki (DOR) [nM]
1 | Cc1c(C(=O)NC2CCNCC2)nn(-c2ccc(Cl)cc2Cl)c1-n1cccc1 [Compound 5] | negligible | ambiguous | did not bind | ambiguous | – | – | – | – | – | – | – | – | – | –
2 | Cc1c(C(=O)NC2CCN(C(=O)[C@H](Cc3ccccc3)NC(=O)CNC(=O)[C@@H](C)NC(=O)[C@@H](N)Cc3ccc(O)cc3)CC2)nn(-c2ccc(Cl)cc2Cl)c1-n1cccc1 [Compound 9] | unexpected improvement of affinity | – | loss in affinity | – | 170 | 263 | 2.61 | modest affinity | 5200 | 6030 | 443 | 1290 | – | –
3 | C[C@@H](NC(=O)[C@@H](N)Cc1ccc(O)cc1)C(=O)NCC(=O)N[C@@H](Cc1ccccc1)C(N)=O [Compound 10, Tyr-D-Ala-Gly-Phe-NH2, reference compound] | – | ambiguous | high affinity | – | – | – | – | did not show any affinity | – | – | – | – | 316 | 107
